Test results taken from patent US10105467B2, “Biocompatible polymer compositions for tissue void filling” (Rutgers, The State University of New Jersey, priority 2013, dated 2018).

What was measured:
[1] = system: MDA-MB-231 breast cancer cells; experiment: In vitro cytotoxicity, Alamar blue metabolic assay, scaffolds in transwell inserts; assay type: cell-based
Experimental: MDA-MB-231 breast cancer cells and primary human dermal fibroblasts (HDFs) were obtained from the ATCC (USA). Both cell types were cultured in DMEM supplemented with 10% fetal bovine serum (FBS) and 25 μg/mL Gentamicin. For toxicity studies HDFs were seeded at 5,000 cells per well/1 mL medium in a 12-well plate and allowed to reach confluency prior to application of experimental conditions. MDA-MB-231 cell were seeded in 12-well plates at a seeding density of 5,000 per well/1 mL medium and incubated at 37° C. in a humidified atmosphere of 95% air and 5% CO2 for 24 h prior to application of experimental conditions. […]
Cells subjected to these experimental conditions were allowed to culture for 6 days at which point cell viability was measured using Alamar blue metabolic assay. […] The supernatant from each well was transferred to a 96-well plate and was measured using a fluorescence plate reader (Tecan, Männedorf, Switzerland) by applying wavelength excitation of 560 nm and read it at emission of 590 nm, which is directly correlated to the viable cell number, and inversely correlated with the toxicity of the cross-linked polymer tissue scaffolds. The mean absorbance for each treatment was determined and then expressed as a percent of viability relative to the control. […]

rabbit liver esterase = experiment: Incubation with rabbit liver esterase, HPLC analysis; assay type: in vitro ADME; details: 30 min

| SMILES | IC50 ([1]; Homo sapiens, 144 h, MDA-MB-231, 6 days, free curcumin dissolved in DMSO, diluted in media, max 1% DMSO) | curcumin uptake by cells or degradation after addition to media ([1]; free curcumin added to cell culture media) | conversion to the free acid (rabbit liver esterase) |
| --- | --- | --- | --- |
| COc1cc(/C=C/C(=O)CC(=O)/C=C/c2ccc(O)c(OC)c2)ccc1O [free curcumin, curcumin] | 14 µM | less than 48 hours |  |
| CCOC(=O)[C@H](Cc1ccc(O)cc1)NC(=O)CCc1ccc(O)cc1 [DTE, desaminotyrosyl-tyrosine ethyl ester] |  |  | approximately 70% |
